The results in this text go back to ChEMBL document CHEMBL1201862, “PubChem BioAssay data set” (2004).

Some test systems named below: PC-3; DU-145; K562; TK-10; SK-MEL-28; Malme-3M; MCF7; A549; NCI/ADR-RES; KM12; M14; LOX IMVI; NCI-H226; SW-620; SK-OV-3; EKVX; OVCAR-5; SK-MEL-5; SK-MEL-2.
What all share (assay): NCI tumour cell line growth inhibition, 48 h

Structures are written as SMILES.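 The compound was tested at five concentrations on cells cultured in 96-well plates, with a 48-hour exposure period. At the GI50, growth is halved.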 Active and inactive are the calls of the source. No stated cut-off is given here; in the data, active = GI50 up to about 1.1 µM and inactive = higher.

For `COc1ccc(C2SCC(=O)N2c2ccc(-c3ccc(-n4c(-c5ccccc5)nc5ccccc5c4=O)cc3)cc2)cc1OC` (centres undefined), the GI50 is 42 µM (inactive) in the assay with PC-3; 98.2 µM (inactive) with DU-145; 23.3 µM (inactive) in the assay with K562; 25.2 µM (inactive) with TK-10; 57 µM (inactive) with SK-MEL-28; 81.8 µM (inactive) with Malme-3M. In addition, the GI50 was 27.7 µM (inactive) with MCF7; 27.9 µM (inactive) with A549; 61.2 µM (inactive) in the assay with NCI/ADR-RES; 7.85 µM (inactive) in the assay with KM12; 52.7 µM (inactive) in the assay with M14; 17.8 µM (inactive) in the assay on LOX IMVI. In addition, the GI50 was 52.7 µM (inactive) in the assay with NCI-H226, 73.5 µM (inactive) with SW-620, 40.3 µM (inactive) in the assay with SK-OV-3 and 81.8 µM (inactive) in the assay on EKVX.

Take `COc1cc(S(=O)(=O)Nc2ccc(-c3csc(N4C(=O)CSC4c4cccc(Oc5ccccc5)c4)n3)cc2)ccc1Cl` (centres undefined): the GI50 in the assay on PC-3 was 32.7 µM (inactive); in the assay with OVCAR-5 it was > 100 µM (inactive); in the assay with DU-145, 48.4 µM (inactive); in the assay on K562, 31.9 µM (inactive); with SK-MEL-28, 23 µM (inactive); in the assay with Malme-3M, 43.4 µM (inactive). Besides, the GI50 in the assay on MCF7 is 20.6 µM (inactive); in the assay on SK-MEL-5 it was 32.8 µM (inactive); with NCI/ADR-RES, > 100 µM (inactive); in the assay on KM12 it was 35.2 µM (inactive); in the assay on M14 it was 53 µM (inactive); in the assay on LOX IMVI, 32.7 µM (inactive). The GI50 with NCI-H226 was 32.1 µM (inactive); in the assay with SW-620, 43.8 µM (inactive); with SK-OV-3, 71 µM (inactive); in the assay on EKVX, 44.2 µM (inactive).

`CC(C)(C)OC(=O)CN1C(=O)CC1CC(=O)c1ccccc1` (centres undefined): the GI50 in the assay with PC-3 is 17.2 µM (inactive); in the assay with OVCAR-5, 17.5 µM (inactive); with DU-145, 17.9 µM (inactive); with K562 it was 4.14 µM (inactive); in the assay with TK-10, 30.2 µM (inactive); in the assay on SK-MEL-28 it was 19.5 µM (inactive). Further, the GI50 was 17.3 µM (inactive) in the assay on Malme-3M; 12.4 µM (inactive) in the assay on MCF7; > 100 µM (inactive) with A549; 18.2 µM (inactive) in the assay on SK-MEL-5; 35.1 µM (inactive) in the assay with NCI/ADR-RES; 20 µM (inactive) with KM12. In addition, the GI50 in the assay with M14 is 16.3 µM (inactive); with LOX IMVI, 16.9 µM (inactive); with NCI-H226, 25.1 µM (inactive); with SW-620 it was 3.58 µM (inactive); with EKVX, 17.2 µM (inactive); in the assay with SK-MEL-2 it was 16.8 µM (inactive).

For `O=c1[nH]c(N/N=C\C(=N/Nc2nc3ccccc3c(=O)[nH]2)C(O)C(O)C(O)CO)nc2ccccc12` (centres undefined), the GI50 in the assay with PC-3, with OVCAR-5, in the assay on DU-145, with K562, with TK-10 and with SK-MEL-28 was > 100 µM (inactive) each time. Moreover, the GI50 with MCF7, in the assay with A549, in the assay with SK-MEL-5, in the assay on NCI/ADR-RES, in the assay with KM12 and in the assay on M14 was > 100 µM (inactive) each time. Further, the GI50 in the assay on LOX IMVI, with NCI-H226, in the assay on SW-620, in the assay with SK-OV-3, in the assay on EKVX and in the assay with SK-MEL-2 was > 100 µM (inactive) throughout.

Regarding `C#CC(C)(C)Oc1cc(OC)c2c(=O)c3ccccc3n(C)c2c1`, the GI50 was 13.8 µM (inactive) with PC-3; 31.8 µM (inactive) in the assay on OVCAR-5; 12.4 µM (inactive) in the assay with DU-145; 10.7 µM (inactive) with K562; 23.6 µM (inactive) with TK-10; 16.2 µM (inactive) with SK-MEL-28. The GI50 was 20.1 µM (inactive) in the assay on MCF7; 9.86 µM (inactive) in the assay with A549; 11.1 µM (inactive) in the assay with SK-MEL-5; 13.8 µM (inactive) with NCI/ADR-RES; 10.9 µM (inactive) with KM12; 16.6 µM (inactive) with NCI-H226. The GI50 is 31.9 µM (inactive) with SW-620, 23 µM (inactive) in the assay with SK-OV-3, 20.9 µM (inactive) in the assay on EKVX and 16.3 µM (inactive) with SK-MEL-2.

As for `COc1cc(C2C3C=CC=C4CC=CC(=C43)C3CCC(=O)N32)cc(OC)c1OC` (centres undefined), the GI50 is 59 µM (inactive) with PC-3; > 100 µM (inactive) in the assay with OVCAR-5; > 100 µM (inactive) with DU-145; > 100 µM (inactive) with K562; > 100 µM (inactive) with TK-10; > 100 µM (inactive) with SK-MEL-28. For the same molecule, the GI50 is > 100 µM (inactive) in the assay on MCF7; 99.1 µM (inactive) with A549; 13.8 µM (inactive) with NCI/ADR-RES; > 100 µM (inactive) in the assay on KM12; > 100 µM (inactive) in the assay with M14; > 100 µM (inactive) with LOX IMVI. Besides, the GI50 in the assay on NCI-H226 was 0.224 µM (active); in the assay on SW-620, > 100 µM (inactive); with SK-OV-3, 64 µM (inactive); in the assay with EKVX, > 100 µM (inactive); in the assay with SK-MEL-2 it was > 100 µM (inactive).

Turning to `CC(=O)O[C@@H]1C[C@@]2(C)[C@@H]3CC=C4[C@@H](C[C@H](O)C(=O)C4(C)C)[C@]3(C)C(=O)C[C@]2(C)[C@H]1[C@@](C)(O)C(=O)/C=C/C(C)(C)OC(C)=O`, the GI50 in the assay on PC-3 was 1.59 µM (inactive); in the assay on OVCAR-5, 12.8 µM (inactive); in the assay with DU-145, 2.03 µM (inactive); in the assay on K562 it was 1.51 µM (inactive); in the assay with TK-10, 0.0787 µM (active); in the assay with SK-MEL-28 it was 0.365 µM (active). Besides, the GI50 is 3.57 µM (inactive) in the assay on MCF7; 0.881 µM (active) in the assay with A549; 1.99 µM (inactive) in the assay on SK-MEL-5; 3.64 µM (inactive) in the assay with NCI/ADR-RES; 4.84 µM (inactive) in the assay with KM12; 0.592 µM (active) with M14. The GI50 is 2.74 µM (inactive) with LOX IMVI; 0.338 µM (active) in the assay with NCI-H226; 0.516 µM (active) with SW-620; < 0.0251 µM (active) with SK-OV-3; 2.72 µM (inactive) with EKVX; 1.26 µM (inactive) in the assay on SK-MEL-2.

As to `O=c1c2cc(-c3ccccc3)sc2nc2n1N=C(c1ccc(Cl)cc1)CS2`, the GI50 in the assay on PC-3, in the assay on OVCAR-5, in the assay with DU-145, in the assay on K562, in the assay on TK-10 and in the assay with SK-MEL-28 was > 100 µM (inactive) each time. In addition, the GI50 with Malme-3M, in the assay on MCF7, in the assay on A549, in the assay on SK-MEL-5, in the assay with NCI/ADR-RES and in the assay with KM12 was > 100 µM (inactive) throughout. The GI50 in the assay with LOX IMVI, in the assay with NCI-H226, in the assay on SW-620, in the assay on SK-OV-3 and in the assay on EKVX was > 100 µM (inactive) in each case.

For `C=CC(Cl)(CBr)CCC(Br)=C(C)C` (centres undefined), the GI50 in the assay on PC-3 is 21.3 µM (inactive); with OVCAR-5, 26.8 µM (inactive); in the assay with DU-145, 33.3 µM (inactive); with K562, 31.2 µM (inactive); in the assay on TK-10 it was 26.3 µM (inactive); in the assay on SK-MEL-28 it was 20 µM (inactive). The GI50 in the assay on Malme-3M is 17.6 µM (inactive); in the assay with MCF7, 14.2 µM (inactive); with A549 it was 43.6 µM (inactive); in the assay on SK-MEL-5, 17.1 µM (inactive); in the assay with NCI/ADR-RES it was 28.8 µM (inactive); in the assay with KM12, 20.2 µM (inactive). Further, the GI50 with M14 was 25.5 µM (inactive); in the assay with LOX IMVI it was 15.7 µM (inactive); with NCI-H226 it was 44.8 µM (inactive); with SW-620, 15.8 µM (inactive); with EKVX, 35.4 µM (inactive); with SK-MEL-2 it was 16.6 µM (inactive).

With `COc1ccc(NC(=O)/C(CC2=Nc3ccc([N+](=O)[O-])cc3NC2O)=N\NC(=O)C[N+](C)(C)C)c(OC)c1` (centres undefined), the GI50 in the assay with PC-3 was > 100 µM (inactive); in the assay on OVCAR-5 it was > 100 µM (inactive); with DU-145, 47.3 µM (inactive); with TK-10 it was > 100 µM (inactive); in the assay with SK-MEL-28 it was 97.9 µM (inactive); with MCF7 it was > 100 µM (inactive). In addition, the GI50 with A549 was 40.5 µM (inactive); in the assay with SK-MEL-5 it was 22.2 µM (inactive); in the assay on NCI/ADR-RES, 40.6 µM (inactive); in the assay on KM12 it was 89.7 µM (inactive); in the assay with M14 it was 56.1 µM (inactive); in the assay on LOX IMVI it was 62.1 µM (inactive). Moreover, the GI50 with NCI-H226 is > 100 µM (inactive); in the assay on SW-620, 94.8 µM (inactive); in the assay on SK-OV-3 it was 89.9 µM (inactive); in the assay with EKVX, 54.7 µM (inactive); in the assay on SK-MEL-2, > 100 µM (inactive).

With `CCOC(=O)N(CC)c1c(C(F)(F)F)cc(-c2ccccc2)[nH]c1=O`, the GI50 with PC-3 was 46.5 µM (inactive); in the assay on OVCAR-5 it was > 100 µM (inactive); in the assay with DU-145, 72.3 µM (inactive); in the assay with K562 it was 23.1 µM (inactive); in the assay with TK-10 it was 97.9 µM (inactive); in the assay on SK-MEL-28, 70.6 µM (inactive). The GI50 with MCF7 was 44 µM (inactive); in the assay with A549 it was 45.3 µM (inactive); in the assay on SK-MEL-5 it was 41.7 µM (inactive); in the assay on NCI/ADR-RES it was 24.7 µM (inactive); in the assay on KM12 it was 36.1 µM (inactive); in the assay on M14, 66.4 µM (inactive). The GI50 was 68.4 µM (inactive) in the assay on LOX IMVI; > 100 µM (inactive) in the assay on NCI-H226; 54.7 µM (inactive) in the assay with SW-620; 92 µM (inactive) with SK-OV-3; 33.5 µM (inactive) in the assay on EKVX; 72.6 µM (inactive) in the assay with SK-MEL-2.
